Values quoted from earlier work, collected in patent publication US8188116B2, “Agents for therapy efficacy monitoring and deep tissue imaging” (Vanderbilt University, priority 2002, dated 2012).

Test system: PBR
Conditions: in words, background statement

binding affinity for PBR: fentomolar
Compound: COc1ccc(OC)c(CN(C(C)=O)c2cc(F)ccc2Oc2ccccc2)c1 [DAA1106]
